Experiment [1] deals with plaques of thoracic aorta. Description: Fluorescence mapping of lipid oxide in aorta of arteriosclerosis model mouse. The class given is in vivo, Apo-E knockout mouse. Conditions: high fat diet 3 weeks, 500 μM/kg intraperitoneal, 15 minutes after administration, 470 nm/530 nm. The protocol: A 6-week-old male Apo-E knockout mouse (Apo−/−) was fed with a high fat diet, and 3 weeks later, NBD-Pen was administered at 500 μM/kg by intraperitoneal injection.
Fifteen minutes after NBD-Pen administration, the mouse was subjected to three types of mixed anesthesia and sacrificed, and the thoracic aorta was immediately removed. […] An oil red stained image of plaques of the same aortic sample was taken with a digital camera (FIG. 7b).

A further experiment relates to lipid radicals in LDL. Description: Fluorescence detection of lipid radicals in LDL with NBD-Pen. The protocol:
To a solution of 20 μg protein/ml of LDL and 10 μM of NBD-Pen in phosphate buffered saline (PBS) containing 0.5% of MeCN were added 0-3 μM of CuSO4, FeSO4 or Hemin, to generate lipid radicals.
Specifically, to a solution of 20 μg protein/ml of LDL and 10 μM of NBD-Pen in phosphate buffered saline (PBS; pH 7.4) containing 0.5% of MeCN were added 0-3 μM of Hemin, to generate lipid radicals. After incubation for 60 minutes at 37° C., these reacted solutions were investigated by the respective methods.
For fluorescence detection using NBD-Pen according to the present invention, the fluorescence intensities obtained in Example 1 were expressed as ratios based on the results without addition of Hemin.

Experiment [2] is described as follows: Lipid peroxide (LOOH) detection in LDL with fluorescent probe DPPP. Conditions: concentration range used in Example 2. The protocol:
The absorption band around 234 nm of conjugated dienes formed during lipid oxidation was tracked by absorbance spectrophotometry. In addition, a measurement was performed by use of diphenyl-1-pyrenylphosphate (DPPP), which is a lipid peroxide (LOOH) detection fluorescent probe.

For “2,2,6-trimethyl-4-(4-nitrobenzo[1,2,5]oxadiazol-7-ylamino)-6-pentylpiperadine-1-oxyl [NBD-Pen]”, the “match of NBD-Pen fluorescence areas with oil-red stained plaques” value in experiment [1] is reported as “completely matched”. Further, the “fluorescence intensities (λex: 470 nm, λem: 530 nm)” value with lipid radicals in LDL (20 μg protein/ml LDL, 10 μM NBD-Pen, 0-3 μM CuSO4, FeSO4 or Hemin, 60 minutes at 37° C.) is recorded as “increased in a concentration-dependent manner”. Moreover, in the experiment on lipid radicals in LDL (Hemin addition, compared with Cu2+ and Fe2+), the “sensitivity of fluorescence detection” value is on record as “high sensitivity of fluorescence detection”.

On to `O=P(Oc1ccccc1)(Oc1ccccc1)Oc1ccc2ccc3cccc4ccc1c2c34` [DPPP, diphenyl-1-pyrenylphosphate], for which, in experiment [2], the “detection of lipid peroxides” value is “neither method could detect lipid peroxides”.

The record behind these values is patent publication US11725002B2, “Detection reagents and kit for identifying oxidized state and glycated state of low-density lipoproteins” (FUSO PHARMACEUTICAL INDUSTRIES, LTD., priority 2017, dated 2023).
